According to patent US11242337B2, “Compounds useful for treating gastrointestinal tract disorders” (Ardelyx, Inc., priority 2017, dated 2022):

Columns and labels:
NHE3 [1] = target: T1, NHE3 (Homo sapiens, UniProt P48764); experiment: Cell-based assay of NHE-3 activity (pre-incubation inhibition), human; conditions: human Preincubation
T1 construct: expressed in transfected cells
T1 sequence (P48764 26-834): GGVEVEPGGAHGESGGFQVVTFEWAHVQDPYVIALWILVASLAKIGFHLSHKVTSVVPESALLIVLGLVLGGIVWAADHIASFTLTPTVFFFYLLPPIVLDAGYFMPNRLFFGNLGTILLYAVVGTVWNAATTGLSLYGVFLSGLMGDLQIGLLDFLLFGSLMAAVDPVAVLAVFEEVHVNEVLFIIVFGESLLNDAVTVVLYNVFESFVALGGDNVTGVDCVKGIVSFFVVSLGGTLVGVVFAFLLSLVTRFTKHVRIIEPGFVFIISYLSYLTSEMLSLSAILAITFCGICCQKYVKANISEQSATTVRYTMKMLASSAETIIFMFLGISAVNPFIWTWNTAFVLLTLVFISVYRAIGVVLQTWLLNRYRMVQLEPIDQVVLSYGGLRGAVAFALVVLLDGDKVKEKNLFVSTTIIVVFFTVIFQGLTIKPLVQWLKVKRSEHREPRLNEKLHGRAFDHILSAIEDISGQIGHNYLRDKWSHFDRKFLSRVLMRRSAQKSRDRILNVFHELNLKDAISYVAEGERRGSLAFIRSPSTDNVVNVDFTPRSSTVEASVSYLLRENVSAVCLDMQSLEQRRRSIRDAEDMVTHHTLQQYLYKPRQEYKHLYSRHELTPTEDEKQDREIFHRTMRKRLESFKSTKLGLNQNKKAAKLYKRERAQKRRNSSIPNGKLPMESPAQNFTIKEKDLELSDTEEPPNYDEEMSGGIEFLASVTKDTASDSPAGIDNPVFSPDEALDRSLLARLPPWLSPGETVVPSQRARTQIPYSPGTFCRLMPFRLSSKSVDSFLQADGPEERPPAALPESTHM
T1 sequence (Q99653 2-195 partner limits assumed): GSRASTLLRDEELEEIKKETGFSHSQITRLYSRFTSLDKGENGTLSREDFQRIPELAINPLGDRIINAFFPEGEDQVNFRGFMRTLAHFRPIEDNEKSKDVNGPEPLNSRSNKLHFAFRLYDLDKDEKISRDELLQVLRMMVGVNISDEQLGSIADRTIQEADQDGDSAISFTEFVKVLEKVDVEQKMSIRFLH
Description: Rat and human NHE-3-mediated Na^+-dependent H^+ antiport was measured using a modification of the pH sensitive dye method originally reported by Paradiso (Proc. Natl. Acad. Sci. USA. (1984) 81(23): 7436-7440). PS120 fibroblasts stably expressing human NHE3 and NHERF2 were obtained from Mark Donowitz (Baltimore, Md.). Opossum kidney (OK) cells were obtained from the ATCC and propagated per their instructions. The rat NHE-3 gene (GenBank M85300) was introduced into OK cells via electroporation, and cells were seeded into 96 well plates and grown overnight. Medium was aspirated from the wells then incubated for 30 min at 37° C. with NH4Cl-HEPES buffer (20 mM NH4Cl, 80 mM NaCl, 50 mM HEPES, 5 mM KCl, 2 mM CaCl2, 1 mM MgCl2, pH 7.4) containing 5 μM BCECF-AM. Cells were washed once with Ammonium free, Na^+-free HEPES (100 mM choline, 50 mM HEPES, 10 mM glucose, 5 mM KCl, 2 mM CaCl2, 1 mM MgCl2, pH 7.4) and incubated in the same buffer for 10 minutes at room temperature to lower intracellular pH with 0-30 μM test compound. […] Changes in intracellular pH were monitored using a FLIPR Tetra® (Molecular Devices, Sunnyvale, Calif.) by excitation at λex 439 to 505 nm, and measuring BCECF fluorescence at λem 538 nm. The initial rate of the fluorescence ratio change was used as a measure of NHE-mediated Na^+/H^+ activity, and reported as the change in fluorescence ratio per minute.

NHE3 [2] = target: T1, NHE3; experiment: Cell-based assay of NHE-3 activity (persistent inhibition), human; conditions: human Persistence, 60 min incubation then washout
Description: The ability of compounds to inhibit human and rat NHE-3-mediated Na^+ dependent H^+ antiport after application and washout was measured using a modification of the pH sensitive dye method described above. PS120 fibroblasts stably expressing human NHE3 and NHERF2 were obtained from Mark Donowitz (Baltimore, Md.). Opossum kidney (OK) cells were obtained from the ATCC and propagated per their instructions. The rat NHE-3 gene was introduced into OK cells via electroporation, and cells were seeded into 96 well plates and grown overnight. Medium was aspirated from the wells, cells were washed once with NaCl-HEPES buffer (100 mM NaCl, 50 mM HEPES, 10 mM glucose, 5 mM KCl, 2 mM CaCl2, 1 mM MgCl2, pH 7.4), then overlayed with NaCl-HEPES buffer containing 0-30 μM test compound. After a 60 min incubation at room temperature, the test drug containing buffer was aspirated from the cells. Following aspiration, cells were washed once with NaCl-HEPES buffer without drug, then incubated for 30 min at 37° C. with NH4Cl-HEPES buffer (20 mM NH4Cl, 80 mM NaCl, 50 mM HEPES, 5 mM KCl, 2 mM CaCl2, 1 mM MgCl2, pH 7.4) containing 5 μM BCECF-AM. Cells were washed once with Ammonium free, Na^+-free HEPES (100 mM choline, 50 mM HEPES, 10 mM glucose, 5 mM KCl, 2 mM CaCl2, 1 mM MgCl2, pH 7.4) and incubated in the same buffer for 10 minutes at room temperature to lower intracellular pH. NHE-3-mediated recovery of neutral intracellular pH was initiated (10 min after compound washout) by addition of Na-HEPES buffer. […] Changes in intracellular pH were monitored using a FLIPR Tetra® (Molecular Devices, Sunnyvale, Calif.) by excitation at λex 439 to 505 nm, and measuring BCECF fluorescence at λem 538 nm. The initial rate of the fluorescence ratio change was used as a measure of NHE-mediated Na^+/H^+ activity, and reported as the change in fluorescence ratio per minute.

Question: Which results are given for `N#Cc1cc(Cl)cc2c1C[C@H](N1CCNCC1)[C@H]2Oc1ccc(S(=O)(=O)NC2CCN(C(=O)CCCNC(=O)NCCCC(=O)N3CCC(NS(=O)(=O)c4ccc(O[C@H]5c6cc(Cl)cc(C#N)c6C[C@@H]5N5CCNCC5)cc4)CC3)CC2)cc1` [Example 154, 4-([(1S,2S)-6-Chloro-4-cyano-2-(piperazin-1-yl)-2,3-dihydro-1H-inden-1-yl]oxy)-N-[1-(4-[3-(4-[4-([4-([(1S,2S)-6-chloro-4-cyano-2-(piperazin-1-yl)-2,3-dihydro-1H-inden-1-yl]oxy)phenyl]sulfonamido)piperidin-1-yl]-4-oxobutyl)ureido]butanoyl)piperidin-4-yl]benzenesulfonamide]?
Answer: % inhibition (NHE3 [1]): C (>70%); pIC50 (NHE3 [1]; 0-30 μM test compound): C (NHE3 pIC50 > 7); % inhibition (NHE3 [2]): C (>70%); pIC50 (NHE3 [2]): C (NHE3 pIC50 > 7)

Question: Which “% inhibition” value (NHE3 [1]) does the source give for `CN(C)[C@H]1Cc2c(C#N)cc(Cl)cc2[C@@H]1Oc1ccc(S(=O)(=O)NCCOCCOCCNC(=O)NCCCCNC(=O)NCCOCCOCCNS(=O)(=O)c2ccc(O[C@H]3c4cc(Cl)cc(C#N)c4C[C@@H]3N(C)C)cc2)cc1` [Example 12, 3-[2-(2-[2-[(4-[[(1S,2S)-6-Chloro-4-cyano-2-(dimethylamino)-2,3-dihydro-1H-inden-1-yl]oxy]benzene)sulfonamido]ethoxy]ethoxy)ethyl]-1-[4-([[2-(2-[2-[(4-[[(1S,2S)-6-chloro-4-cyano-2-(dimethylamino)-2,3-dihydro-1H-inden-1-yl]oxy]benzene)sulfonamido]ethoxy]ethoxy)ethyl]carbamoyl]amino)butyl]urea; bis(trifluoroacetic acid)] here?
Answer: A (NHE3 < 40%)

Question: What about the pIC50 (NHE3 [1]; 0-30 μM test compound) of the same compound?
Answer: C (NHE3 pIC50 > 7)

Question: What about the “% inhibition” value (NHE3 [2]) of the same compound?
Answer: B (40-70%)

Question: What about the IC50 (NHE3 [2]) of the same compound?
Answer: 100 to 1000 nM

Question: How did the “% inhibition” value (NHE3 [1]) turn out when `COc1cc(O[C@H]2c3cc(Cl)cc(Cl)c3C[C@@H]2N2CCC[C@@H](N)C2)ccc1S(=O)(=O)NCCOCCOCCNC(=O)NCCCCNC(=O)NCCOCCOCCNS(=O)(=O)c1ccc(O[C@H]2c3cc(Cl)cc(Cl)c3C[C@@H]2N2CCC[C@@H](N)C2)cc1OC` [Example 101, 1-[2-(2-[2-[(4-[[(1S,2S)-2-[(3R)-3-Aminopiperidin-1-yl]-4,6-dichloro-2,3-dihydro-1H-inden-1-yl]oxy]-2-methoxybenzene)sulfonamido]ethoxy]ethoxy)ethyl]-3-[4-([[2-(2-[2-[(4-[[(1S,2S)-2-[(3R)-3-aminopiperidin-1-yl]-4,6-dichloro-2,3-dihydro-1H-inden-1-yl]oxy]-2-methoxybenzene)sulfonamido]ethoxy]ethoxy)ethyl]carbamoyl]amino)butyl]urea] was run?
Answer: C (>70%)

Question: And the pIC50 (NHE3 [1]; 0-30 μM test compound)?
Answer: C (NHE3 pIC50 > 7)

Question: And the “% inhibition” value (NHE3 [2])?
Answer: B (40-70%)

Question: And the pIC50 (NHE3 [2])?
Answer: C (NHE3 pIC50 > 7)

Question: Which results are given for `O=C(NCCCCNC(=O)NCCOCCOCCNS(=O)(=O)c1ccc(O[C@H]2c3cc(Cl)cc(Cl)c3C[C@@H]2N2C3CCCC2CC3)cc1)NCCOCCOCCNS(=O)(=O)c1ccc(O[C@H]2c3cc(Cl)cc(Cl)c3C[C@@H]2N2C3CCCC2CC3)cc1` [Example 70, 3-[2-(2-[2-[(4-[[(1S,2S)-2-[8-azabicyclo[3.2.1]octan-8-yl]-4,6-dichloro-2,3-dihydro-1H-inden-1-yl]oxy]benzene)sulfonamido]ethoxy]ethoxy)ethyl]-1-[4-([[2-(2-[2-[(4-[[(1S,2S)-2-[8-azabicyclo[3.2.1]octan-8-yl]-4,6-dichloro-2,3-dihydro-1H-inden-1-yl]oxy]benzene)sulfonamido]ethoxy]ethoxy)ethyl]carbamoyl]amino)butyl]urea]?
Answer: % inhibition (NHE3 [1]): C (>70%); % inhibition (NHE3 [2]): C (>70%)

Question: `COc1cc(Cl)cc2c1C[C@H](N(C)C)[C@H]2Oc1ccc(S(=O)(=O)NCCOCCOCCNC(=O)NCCCCNC(=O)NCCOCCOCCNS(=O)(=O)c2ccc(O[C@H]3c4cc(Cl)cc(OC)c4C[C@@H]3N(C)C)cc2)cc1` [Example 15, 3-[2-(2-[2-[(4-[[(1S,2S)-6-Chloro-2-(dimethylamino)-4-methoxy-2,3-dihydro-1H-inden-1-yl]oxy]benzene)sulfonamido]ethoxy]ethoxy)ethyl]-1-[4-([[2-(2-[2-[(4-[[(1S,2S)-6-chloro-2-(dimethylamino)-4-methoxy-2,3-dihydro-1H-inden-1-yl]oxy]benzene)sulfonamido]ethoxy]ethoxy)ethyl]carbamoyl]amino)butyl]urea; bis(trifluoroacetic acid)] was tested. Which “% inhibition” value (NHE3 [1]) did it give?
Answer: C (>70%)

Question: What about the IC50 (NHE3 [1]; 0-30 μM test compound) of the same compound?
Answer: 100 to 1000 nM

Question: And the “% inhibition” value (NHE3 [2])?
Answer: A (NHE3 < 40%)

Question: And the pIC50 (NHE3 [2])?
Answer: A (NHE3 pIC50 < 6)

Question: Which results are given for `CN1CCN([C@H]2Cc3c(Cl)cc(Cl)cc3[C@@H]2Oc2ccc(S(=O)(=O)NCCOCCOCCNC(=O)NCCCCNC(=O)NCCOCCOCCNS(=O)(=O)c3ccc(O[C@H]4c5cc(Cl)cc(Cl)c5C[C@@H]4N4CCN(C)CC4)cc3)cc2)CC1` [Example 72, 3-[2-(2-[2-[(4-[[(1S,2S)-4,6-Dichloro-2-(4-methylpiperazin-1-yl)-2,3-dihydro-1H-inden-1-yl]oxy]benzene)sulfonamido]ethoxy]ethoxy)ethyl]-1-[4-([[2-(2-[2-[(4-[[(1S,2S)-4,6-dichloro-2-(4-methylpiperazin-1-yl)-2,3-dihydro-1H-inden-1-yl]oxy]benzene)sulfonamido]ethoxy]ethoxy)ethyl]carbamoyl]amino)butyl]urea a; bis(trifluoroacetic acid)]?
Answer: % inhibition (NHE3 [1]): C (>70%); % inhibition (NHE3 [2]): C (>70%); IC50 (NHE3 [2]): 100 to 1000 nM

Question: For `Cc1cc(S(=O)(=O)NCCOCCOCCNC(=O)NCCCCNC(=O)NCCOCCOCCNS(=O)(=O)c2ccc(O[C@H]3c4cc(Cl)cc(F)c4C[C@@H]3N3CCC[C@@H](N)C3)c(C)c2)ccc1O[C@H]1c2cc(Cl)cc(F)c2C[C@@H]1N1CCC[C@@H](N)C1` [Example 6], which “% inhibition” value (NHE3 [1]) is on record?
Answer: A (NHE3 < 40%)

Question: And the pIC50 (NHE3 [1]; 0-30 μM test compound)?
Answer: A (NHE3 pIC50 < 6)

Question: And the “% inhibition” value (NHE3 [2])?
Answer: A (NHE3 < 40%)

Question: What about the pIC50 (NHE3 [2]) of the same compound?
Answer: A (NHE3 pIC50 < 6)
